Earlier results as cited in US20210022994A1, “SUSTAINED RELEASE TREPOSTINIL-COMPOUND MICROPARTICLE COMPOSITIONS” (Lupin Holdings, B.V., priority 2019, published 2021).

Details: in human plasma

CCCCC[C@H](O)CC[C@@H]1[C@H]2Cc3cccc(OCC(=O)O)c3C[C@H]2C[C@H]1O [treprostinil, (1R,2R,3aS,9aS)-[[2,3,3a,4,9,9a-hexahydro-2-hydroxy-1-[(3S)-3-hydroxyoctyl]-1Hbenz[f]inden-5-yl]oxy]acetic acid]
half-life: 2 to 4 h
